Assay results: patent publication US20120258961A1, “4-AMINO-1,3-THIAZINE OR OXAZINE DERIVATIVE” (SHIONOGI & CO., LTD., priority 2009, published 2012)

Key:
[1] = BA test (oral absorption); type: in vivo; conditions: plasma; from AUCs of oral and intravenous administration groups, mouse or rats
Procedure: Materials and Methods for studies on oral absorption
(1) Animal: Mouse or Rats
(2) Breeding conditions: mouse or rats were allowed to freely take solid feed and sterilized tap water. (3) Dose and grouping: orally or intravenously administered at a predetermined dose; grouping was as follows (Dose depends on the compound) Oral administration: 1 to 30 mg/kg (n=2 to 3) Intravenous administration: 0.5 to 10 mg/kg (n=2 to 3) (4) Preparation of dosing solution: for oral administration, in a solution or a suspension state; for intravenous administration, in a solubilized state (5) Administration method: in oral administration, forcedly administer into ventriculus with oral probe; in intravenous administration, administer from caudal vein with a needle-equipped syringe (6) Evaluation items: blood was collected over time, and the plasma concentration of drug was measured by LC/MS/MS (7) Statistical analysis: regarding the transition of the plasma concentration, the area under the plasma concentration-time curve (AUC) was calculated by non-linear least squares program WinNonlin (Registered trade name), and the bioavailability (BA) was calculated from the AUCs of the oral administration group and intravenous administration group

[2] = system: Neuroblastoma SH-SY5Y cells (SH/APPwt) with human wild-type β-APP excessively expressed; assay: Measurement of β-amyloid (Aβ) production inhibitory effect in cell; type: cell-based; conditions: 24 hours, Amyloid β 1-40 HTRF in culture supernatant, read-out: Test example 2 IC50 (amount needed to inhibit Aβ production by 50%)
Procedure: Neuroblastoma SH-SY5Y cells (SH/APPwt) with human wild-type β-APP excessively expressed therein were prepared at 8×10^5 cells/mL, and 150 μl portions thereof were inoculated into each well of a 96-well culture plate (Falcon). The cells were cultured for 2 hours at 37° C. in a 5% gaseous carbon dioxide incubator. Then, a solution which had been preliminarily prepared by adding and suspending the test compound (DMSO (dimethyl sulfoxide) solution) so as to be 2 μl/50 μl medium was added to the cell sap. Namely, the final DMSO concentration was 1%, and the amount of the cell culture was 200 μl. After the incubation was performed for 24 hours from the addition of the test compound, 100 μl of the culture supernatant was collected from each fraction. The amount of the Aβ in each fraction was measured.
The Aβ amount was measured as follows. 10 μl of a homogeneous time resolved fluorescence (HTRF) measurement reagent (Amyloid β 1-40 peptide; IBA Molecular Holding, S.A.) and 10 μl of the culture supernatant were put into a 384-well half area microplate (black microplate, Costar) and mixed with each other, and then left standing overnight at 4° C. while the light was shielded. Then, the fluorescence intensity (excitation wavelength: 337 nm, measurement wavelength: 620 nm and 665 nm) was measured with a Wallac 1420 multilabel counter (Perkin Elmer life sciences). The Aβ amount was determined from the count rate at each measurement wavelength (10000×Count 665/Count 620), and the amount needed to inhibit Aβ production by 50% (IC50) was calculated from at least six different dosages.

Recombinant human BACE1 = target: T1, Recombinant human BACE1 (Homo sapiens, UniProt P56817); assay: Assay of BACE1 inhibiting activity; type: biochemical; conditions: Recombinant human BACE1 7.4 nmol/L, substrate peptide 18 nmol/L, pH 5.0, 30° C., 3 hours; read-out: Test example 1 IC50 (BACE1 inhibiting activity)
T1 construct: purchased R&D Systems
Procedure: 48.5 μL of substrate peptide solution (Biotin-XSEVNLDAEFRHDSGC-Eu: X=ε-amino-n-capronic acid, Eu=Europium cryptate) was added to each well of 96-hole half-area plate (a black plate: Costar), and after addition of 0.5 μl of the test compound (dissolved in […]) and 1 μl of Recombinant human BACE1 (R&D Systems), the reaction mixture was incubated at 30° C. for 3 hours. The substrate peptide was synthesized by reacting Cryptate TBPCOOH mono SMP (CIS bio international) with Biotin-XSEVNLDAEFRHDSGC (Peptide Institute, Inc.). The final concentrations of the substrate peptide and Recombinant human BACE1 were adjusted to 18 nmol/L and 7.4 nmol/L, respectively, and the reaction was performed in sodium acetate buffer (50 mmol/L sodium acetate, pH 5.0, 0.008% Triton X-100). After the incubation for reaction, 50 μl of 8.0 μg/ml Streptavidin-XL665 (CIS bio international) dissolved in phosphate buffer (150 mmol/L K2HPO4—KH2PO4, pH 7.0, 0.008% Triton X-100, 0.8 mol/L KF) was added to each well and left stand at 30° C. for an hour. After then, fluorescence intensity was measured (excitation wavelength: 320 nm, measuring wavelength: 620 nm and 665 nm) using Wallac 1420 multilabel counter (Perkin Elmer life sciences). Enzymatic activity was determined from counting ratio of each wavelength (10,000×Count 665/Count 620) and 50% inhibitory concentration (IC50) against the enzymatic activity was calculated.

[3] = target: T2, CYP3A4 enzyme expressed in Escherichia coli (Homo sapiens, UniProt P08684); assay: CYP3A4 fluorescent MBI test; type: in vitro ADME; conditions: substrate 7-BFC
T2 construct: host or cells: Escherichia coli
Procedure: The CYP3A4 fluorescent MBI test is a test of investigating enhancement of CYP3A4 inhibition of a compound by a metabolism reaction, and the test was performed using, as CYP3A4 enzyme expressed in Escherichia coli and employing, as an index, a reaction in which 7-benzyloxytrifluoromethylchmarin (7-BFC) is debenzylated by the CYP3A4 enzyme to produce a metabolite, 7-hydroxytrifluoromethylchmarin (HFC) emitting fluorescent light.
The reaction conditions were as follows: substrate, 5.6 μmol/L 7-BFC; pre-reaction time, 0 or […]; reaction time, 15 minutes; reaction temperature, 25° C. […]
An enzyme in a K-Pi buffer (pH 7.4) and a test drug solution as a pre-reaction solution were added to a 96-well plate at the composition of the pre-reaction, a part of it was transferred to another 96-well plate so that it was 1/10 diluted by a substrate in a K-Pi buffer, NADPH as a co-factor was added to initiate a reaction as an index (without preincubation) and, after a predetermined time of a reaction, acetonitrile/0.5 mol/L Tris(trishydroxyaminomethane)=4/1 was added to stop the reaction. […] For the plate on which each index reaction had been performed, a fluorescent value of 7-HFC which is a metabolite was measured with a fluorescent plate reader. […]

[4] = Solubility test (Test Example 7(1)); type: physicochemical; conditions: aqueous buffer, kinetic from dmso stock; medium (JP-I, JP-II), 2% DMSO solution, after 4 hours; read-out: Solubility assessed by 3 stages from turbidity
Procedure: A 2-fold dilution series (12 points) of a 10 mM solution of a test compound in DMSO was added to a medium (JP-I, JP-II) (2%), and solubility was assessed by 3 stages (High; >40 μM, Medium; 3-40 μM, Low; <3 μM) from a turbidity after 4 hours (crystallization information).

[5] = Brain distribution studies; type: in vivo; conditions: rat, intravenous 0.5 mg/mL/kg, 30 minutes later, read-out: Brain Kp value (area ratio brain/plasma)
Procedure: Intravenous administration is carried out to a rat by 0.5 mg/mL/kg dosage of a text compound. […] Then, the brain was extracted and 20-25% of homogenate thereof was prepared with distilled water. On the other hand, the obtained blood is used as plasma after centrifuging. Then, to the brain sample was added the control plasma at 1:1. To the plasma samples was added the control brains at 1:1. Each sample was measured using LC/MS/MS. The obtained area ratio (a brain/plasma) was used for the brain Kp value.

[6] = Metabolism stability test; type: in vitro ADME; conditions: human liver microsomes 0.5 mg protein/mL, 1 mmol/L NADPH, 37° C., 30 minutes
Procedure: Using a commercially available pooled human hepatic microsomes, a test compound was reacted for a constant time, a remaining rate was calculated by comparing a reacted sample and an unreacted sample, thereby, a degree of metabolism in liver was assessed.
A reaction was performed (oxidative reaction) at 37° C. for 0 minute or 30 minutes in the presence of 1 mmol/L NADPH in 0.2 mL of a buffer (50 mmol/L Tris-HCl pH 7.4, 150 mmol/L potassium chloride, 10 mmol/L magnesium chloride) containing 0.5 mg protein/mL of human liver microsomes. After the reaction, 50 μL of the reaction solution was added to 100 μL of a methanol/acetonitrile=1/1 (v/v), mixed and centrifuged at 3000 rpm for 15 minutes. The test compound in the supernatant was quantified by LC/MS/MS, and a remaining amount of the test compound after the reaction was calculated, letting a compound amount at 0 minute reaction time to be 100%.

[7] = system: CYP1A2, CYP2C9, CYP2C19, CYP2D6, CYP3A4; assay: in vitro; conditions: human, microsomes
Text: Using commercially available pooled human hepatic microsome, and employing, as markers, O-deethylation of 7-ethoxyresorufin (CYP1A2), methyl-hydroxylation of tolbutamide (CYP2C9), 4′-hydroxylation of mephenyloin (CYP2C19), O-demethylation of dextromethorphan (CYP2D6) and hydroxylation of terfenadine (CYP3A4) as typical substrate metabolism reactions of human main five CYP enzyme forms (CYP1A2, 2C9, 2C19, 2D6, 3A4), an inhibitory degree of each metabolite production amount by a test compound was assessed. […]
Each five kinds of substrates, human hepatic microsome, and a test drug in 50 mmol/L Hepes buffer as a reaction solution was added to a 96-well plate at the composition as described above, NADPH, as a cofactor was added to initiate metabolism reactions as markers and, after the incubation at 37° C. for 15 minutes, a methanol/acetonitrile=1/1 (v/v) solution was added to stop the reaction. After the centrifugation at 3000 rpm for 15 minutes, resorufin (CYP1A2 metabolite) in the supernatant was quantified by a fluorescent multilabel counter and tributamide hydroxide (CYP2CP metabolite), mephenyloin 4′ hydroxide (CYP2C19 metabolite), dextromethorphan (CYP2D6 metabolite), and terfenadine alcohol (CYP3A4 metabolite) were quantified by LC/MS/MS. […]

T1 sequence (P56817 46-501): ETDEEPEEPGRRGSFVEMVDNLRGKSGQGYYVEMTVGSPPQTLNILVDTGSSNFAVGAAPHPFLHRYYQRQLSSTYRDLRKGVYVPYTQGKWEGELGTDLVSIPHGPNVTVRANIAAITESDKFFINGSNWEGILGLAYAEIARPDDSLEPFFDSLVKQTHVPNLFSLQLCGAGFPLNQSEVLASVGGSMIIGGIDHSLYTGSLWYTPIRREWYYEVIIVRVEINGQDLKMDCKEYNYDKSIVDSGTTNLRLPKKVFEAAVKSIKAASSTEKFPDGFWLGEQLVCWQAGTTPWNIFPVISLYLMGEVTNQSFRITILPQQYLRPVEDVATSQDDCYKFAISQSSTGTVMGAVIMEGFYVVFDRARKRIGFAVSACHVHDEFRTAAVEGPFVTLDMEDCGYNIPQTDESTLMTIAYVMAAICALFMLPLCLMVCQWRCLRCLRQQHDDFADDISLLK
T2 sequence (P08684 whole entry): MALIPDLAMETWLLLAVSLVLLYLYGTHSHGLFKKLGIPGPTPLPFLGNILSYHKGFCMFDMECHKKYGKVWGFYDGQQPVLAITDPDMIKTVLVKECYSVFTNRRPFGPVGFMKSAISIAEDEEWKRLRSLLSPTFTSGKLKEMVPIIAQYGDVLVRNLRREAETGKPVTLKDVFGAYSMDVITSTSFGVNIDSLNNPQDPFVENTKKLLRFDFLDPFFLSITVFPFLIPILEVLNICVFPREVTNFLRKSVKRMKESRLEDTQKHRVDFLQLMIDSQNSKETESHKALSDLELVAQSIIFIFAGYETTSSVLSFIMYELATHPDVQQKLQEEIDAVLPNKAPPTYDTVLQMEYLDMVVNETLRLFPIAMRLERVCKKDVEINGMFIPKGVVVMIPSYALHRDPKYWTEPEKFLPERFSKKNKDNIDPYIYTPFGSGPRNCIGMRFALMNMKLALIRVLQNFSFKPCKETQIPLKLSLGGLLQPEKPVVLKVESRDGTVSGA

Row | IC50 [2] | Compound | further results
1 | ≤ 1 µM | Cc1cnc(C(=O)Nc2ccc(F)c(C3(C)N=C(N)CCS3)c2)cn1 (stereo not shown) [Compound I-1] | bioavailability [1]: 93.4%
2 | < 0.001 µM | CC1(c2cc(NC(=O)c3ncc(Cl)cc3Cl)ccc2F)N=C(N)CCS1 (stereo not shown) [Compound I-2] | IC50 (Recombinant human BACE1): 0.01 µM
3 | ≤ 1 µM | CC1(c2cc(NC(=O)c3ccc(C#N)cn3)ccc2F)N=C(N)c2ccccc2S1 (stereo not shown) [Compound I-3] | 
4 | ≤ 1 µM | CC1(c2cc(NC(=O)c3ccc(C#N)cn3)ccc2F)N=C(N)c2ccccc2O1 (stereo not shown) [Compound I-4] | CYP3A4 fluorescent MBI: difference between IC50 values without and with preincubation [3]: (−) (when the difference is 3 μM or less, this was defined as (−))
5 | ≤ 1 µM | CC1(c2cc(NC(=O)c3ccc(C#N)cn3)ccc2F)N=C(N)c2cc(Cl)ccc2O1 (stereo not shown) [Compound I-5] | 
6 | ≤ 1 µM | CC1(c2cc(NC(=O)c3ccc(C#N)cn3)ccc2F)N=C(N)CCS1 (stereo not shown) [Compound I-6] | 
7 | ≤ 1 µM | Cc1cnc(C(=O)Nc2ccc(F)c(C3(C)N=C(N)c4ccccc4S3)c2)cn1 (stereo not shown) [Compound I-7] | 
8 | 0.019 µM | COc1cnc(C(=O)Nc2ccc(F)c(C3(C)N=C(N)c4ccccc4S3)c2)cn1 (stereo not shown) [Compound I-8] | IC50 (Recombinant human BACE1): 0.066 µM
9 | ≤ 1 µM | CC1(c2cc(NC(=O)c3ccc(C#N)cn3)ccc2F)N=C(N)c2cc(N)ccc2O1 (stereo not shown) [Compound I-9] | solubility at 4 h [4]: > 40 µM
10 | ≤ 1 µM | CC1(c2cc(NC(=O)c3ccc(C#N)cn3)ccc2F)N=C(N)c2ccc(N)cc2O1 (stereo not shown) [Compound I-10] | 
11 | ≤ 1 µM | CC1(c2cc(NC(=O)c3ccc(C#N)cn3)ccc2F)N=C(N)c2cc(F)ccc2O1 (stereo not shown) [Compound I-11] | Kp at 0.5 h [5]: 5.8
12 | 0.015 µM | CC1(c2cc(NC(=O)c3ccc(C#N)cn3)ccc2F)N=C(N)c2ccc(F)cc2O1 (stereo not shown) [Compound I-12] | IC50 (Recombinant human BACE1): 0.061 µM
13 | ≤ 1 µM | Cc1cnc(C(=O)Nc2ccc(F)c(C3(C)N=C(N)CCS3(=O)=O)c2)cn1 (stereo not shown) [Compound I-19] | Remaining amount of the test compound after the reaction (metabolism stability) [6]: 97%; IC50 at 15 min [7]: > 17 µM
